Measurements as given in patent publication US20170191031A1, “SYSTEMS AND METHODS FOR STEM CELL DIFFERENTIATION” (University of Oslo, priority 2014, published 2017).
Values belong to the compound of their own block, whether it stands above or below them. Non-standard residues stand in square brackets, D forms with d. Residues, ends and D or L forms follow the SMILES beside them. *: point of attachment. Hexanoyl = CCCCCC(=O)*; Ahx = NCCCCCC(=O)O

Key:
Assay type in all cases: cell-based, human
hESC line H1 [1] = assay: Phase I gene expression by TaqMan RT-qPCR
Procedure: Phase I of differentiation consists of a 24 hour treatment with RPMI-B27±insulin (RPMI 1640 GlutaMAX+B27 supplement, both from Life Technologies) plus 3-4 μM CHIR99021 (Stemgent), followed by a 24 hour treatment with RPMI-B27 alone. Phase II consists of 5 days of treatment with Knockout DMEM containing 20% Knockout Serum Replacement, 2 mM GlutaMAX, 100 μM 2-mercaptoethanol, 1×MEM non-essential amino acids (Life Technologies) and 1% DMSO (Sigma-Aldrich). Phase III consists of 10 days of treatment with Leibovitz L-15 media containing 8.3% tryptose phosphate broth, 10 μM hydrocortisone 21-hemisuccinate, 50 μg/ml sodium-L-ascorbate, 100 nM dexamethasone (all from Sigma-Aldrich), 0.58% insulin-transferrin-selenium (ITS), 2 mM GlutaMAX (all from Life Technologies), 8.3% foetal bovine serum (Lonza), and 100 nM Dihexa (kind gift from Prof. Joseph Harding, Washington State University). During Phases II and III cells are fed every 48 hours. […]
RNA was isolated from cells using TRIzol according to manufacturer's instructions and quantified using a spectrophotometer (NanoDrop). cDNA was prepared using the High Capacity Reverse Transcription kit and a thermal cycler (both from Life Technologies). […] Expression levels were quantified relative to ACTB and normalised to undifferentiated pluripotent control samples or definitive endoderm cells as specified. […]

[2] = tested on: hESC line H1 and hiPSC line Detroit; assay: Definitive endoderm differentiation in 3D alginate scaffold, TaqMan; settings: cells encapsulated in alginate scaffold; Phase I conditions RPMI-B27+Chir
Procedure: Differentiation of the hESC line H1 and the hiPSC line Detroit was performed in a 3D environment by encapsulating the cells in an alginate scaffold. The cells were cultured using the same conditions as in 2D with the exception that the spheres were cultured for 6 days in human ES media, then transferred to Phase I conditions (RPMI-B27+Chir). All pluripotency marks were maintained as assessed by TaqMan, to the point prior to transition to Phase I. The ability of hPSCs to be directed to definitive endoderm (DE) in 3D was assessed via the DE marks SOX17 and FOXA2. […] Further differentiation through phases II and III is performed as described above.

hESC line H1 [3] = assay: Phase I definitive endoderm differentiation, FOXA2/SOX17 immunofluorescence and cell counting; settings: 24 hour treatment, Phase I endpoint 48 hours, CHIR99021 3 μM, BIO 1 μM, Wnt3a 50 ng/ml
Description: (§1) The scale bars represent 100 μm.
as §1

[4] = tested on: hESC lines 207 and 360, hiPSC lines Detroit; assay: Phase I definitive endoderm differentiation of other pluripotent lines
Procedure: Cells were seeded onto Matrigel coated 12 well plates in E8 medium at a 1:3-1:4 split ratio, and allowed to adhere for 24 hours at 37° C./5% CO2. It should be noted the optimal cell density for each line needs to be established. The cells were washed with phosphate buffered saline (PBS) before being treated with differentiation media. The differentiation protocol utilises similar base media to a well-established differentiation protocol (Hay et al., Proc Natl Acad Sci USA 105, 12301-12306 2008), with replacement of all growth factors with small molecules, and minor adjustments in timing. The protocol incorporates several stages (FIG. 1) utilising different small molecules.
(§2) Phase I of differentiation consists of a 24 hour treatment with RPMI-B27±insulin (RPMI 1640 GlutaMAX+B27 supplement, both from Life Technologies) plus 3-4 μM CHIR99021 (Stemgent), followed by a 24 hour treatment with RPMI-B27 alone. Phase II consists of 5 days of treatment with Knockout DMEM containing 20% Knockout Serum Replacement, 2 mM GlutaMAX, 100 μM 2-mercaptoethanol, 1×MEM non-essential amino acids (Life Technologies) and 1% DMSO (Sigma-Aldrich). Phase III consists of 10 days of treatment with Leibovitz L-15 media containing 8.3% tryptose phosphate broth, 10 μM hydrocortisone 21-hemisuccinate, 50 μg/ml sodium-L-ascorbate, 100 nM dexamethasone (all from Sigma-Aldrich), 0.58% insulin-transferrin-selenium (ITS), 2 mM GlutaMAX (all from Life Technologies), 8.3% foetal bovine serum (Lonza), and 100 nM Dihexa (kind gift from Prof. Joseph Harding, Washington State University). During Phases II and III cells are fed every 48 hours. Cells were photographed during differentiation using a Zeiss phase contrast microscope and ZEN software. The scale bars represent 100 μm.
Cells were washed with PBS before being fixed with a 10 minute treatment of ice cold methanol. Fixed cells were washed in 0.1% PBS-T: PBS containing 0.1% Tween 20 (Sigma-Aldrich). […] Cells were imaged using a Zeiss Observer Fluorescence Microscope and Axiovision imaging software. […]
(§3) Immuno-stained cells were quantified for expression of stage specific markers by manual counting. For Phase I, FOXA2 and SOX17 were counted separately. For Phase II, cells were scored positively if the nucleus was stained for HNF4A and the cytoplasm was stained for AFP. For Phase III, cells were scored positively if the nucleus was HNF4A positive and the cytoplasm was ALB positive. Phase III cells were also quantified for AFP and A1AT staining and were counted as positive if the cytoplasm was stained. […] A minimum of 10 fields of view were quantified, with a minimum of 250 cells counted per field of view. Percentages are presented as the average of all field quantifications, plus or minus the standard deviation across all fields.

[5] = tested on: hESC line 207 and hiPSC Detroit RA, RB, RC derived definitive endoderm; assay: Phase II hepatic specification of other pluripotent lines; settings: all lines tested; Phase II conditions, 5 days
Procedure: Phase I of differentiation consists of a 24 hour treatment with RPMI-B27±insulin (RPMI 1640 GlutaMAX+B27 supplement, both from Life Technologies) plus 3-4 μM CHIR99021 (Stemgent), followed by a 24 hour treatment with RPMI-B27 alone. Phase II consists of 5 days of treatment with Knockout DMEM containing 20% Knockout Serum Replacement, 2 mM GlutaMAX, 100 μM 2-mercaptoethanol, 1×MEM non-essential amino acids (Life Technologies) and 1% DMSO (Sigma-Aldrich). […]
Cells were washed with PBS before being fixed with a 10 minute treatment of ice cold methanol. […] Cells were imaged using a Zeiss Observer Fluorescence Microscope and Axiovision imaging software. […]
as §3

hepatic progenitors = assay: Phase III hepatocyte maturation, optimisation of concentrations; settings: established in HepatoZYME medium; morphology and function
Procedure: as §2, with “Phase III consists of 10 days of treatment with Leibovitz L-15 media containing 8.3% tryptose” left out

H1 smHLCs = assay: Uptake of indocyanine green; settings: 1 mg/ml, 1 hour; phase microscopy
Procedure: In order to assess glycogen storage, differentiated cells were fixed and treated with a periodic acid-Schiff staining kit (Sigma-Aldrich) in accordance with manufacturer's instructions and imaged using a Zeiss phase contrast microscope and ZEN software. The scale bars represent 100 μm. The cellular uptake of indocyanine green was assessed. Briefly, ICG (Sigma-Aldrich) was reconstituted in water and used at a final concentration of 1 mg/ml. Cells were incubated in media supplemented with ICG for 1 hour, the cells were then washed with PBS and imaged using a Zeiss phase contrast microscope and ZEN software.

CYP1A2 = assay: Cytochrome P450 induction, P450-Glo CYP1A2; settings: 100 μM, 72 hours
Procedure: Induction of cytochrome P450 activity was assessed in both small molecule and growth factor derived HLCs. CYP1A2 activity was detected using the P450-Glo CYP1A2 Induction/Inhibition Assay kit (Promega, Cat. no. V8422). […] Assays were performed according to the manufacturer's instructions for non-lytic P450-Glo assays using cultured cells in monolayers. […] Briefly, cells were cultured to day 20 of the differentiation protocol and Rifampicin or Omeprazole was added to L-15 culture medium, which was formulated as described above, but without dexamethasone or hydrocortisone. […] Briefly, for CYP1 A2 the substrate Luciferin-1A2 was diluted to 6 μM in PBS (calcium/magnesium free) containing 3 mM freshly prepared salicylamide (Sigma). The Luciferin substrate was added to each well (1 ml per well of a 6 well plate), and incubated for 60 minutes followed by detection. […] Basal activity was assessed as above with the omission of inducers. In addition, no cell media controls were included. Finally as a negative control, the pluripotent hESC line H1 was assayed for CYP activity as described above. All data was normalised to total protein content in each well. Data is presented as the mean values of 6 independent experiments; error bars represent standard deviation.

[6] = all lines (207, Detroit RA, RB, RC), 4 μM in RPMI-B27 minus insulin, 48 hours

Compound: Cc1c[nH]c(-c2cnc(NCCNc3ccc(C#N)cn3)nc2-c2ccc(Cl)cc2Cl)n1 [CHIR99021]
Time to rapid upregulation of NODAL after exposure (hESC line H1 [1]; 3 μM): ≤ 4 h | SOX7 levels (primitive endoderm marker) during Phase I (hESC line H1 [1]; 3 μM 24 hour, then 24 hours RPMI-B27): No upregulation | Induction of SOX17 and FOXA2 in 3D over 2D differentiation [2]: an order of magnitude induction | Expression of DE proteins FOXA2 and SOX17 by immunofluorescence (hESC line H1 [3]): equivalent co-expression | Phase I differentiation under H1 conditions ([4]; 3 μM, 24 hour treatment, then 24 hours RPMI-B27): very inefficient | FOXA2 positive cells at Phase I endpoint [4, 6]: 81%-84% | SOX17 positive cells at Phase I endpoint [4, 6]: 79%-82% | Optimal concentration for Phase I differentiation ([4]; titration 1-10 μM in RPMI-B27±insulin, optimum in RPMI-B27 minus insulin): 4 µM

Compound: C[S+](C)[O-] [DMSO, Dimethylsulfoxide]
Efficiency based on AFP/HNF4A co-expression [5]: 86%-89%

Compound: C[C@@H]1C[C@H]2[C@@H]3CCC4=CC(=O)C=C[C@]4(C)[C@@]3(F)[C@@H](O)C[C@]2(C)[C@@]1(O)C(=O)CO [DEX, dexamethasone]
Optimal concentration for hepatic maturation (hepatic progenitors): 100 nM

Compound: CC1(C)C(/C=C/C=C/C=C/C=C2\N(CCCCS(=O)(=O)O)c3ccc4ccccc4c3C2(C)C)=[N+](CCCCS(=O)(=O)[O-])c2ccc3ccccc3c21 [indocyanine green]
Cellular uptake in smHLCs (H1 smHLCs): ICG positive cells were clearly visible

Compound: O=C1Nc2cc(Br)ccc2/C1=C1/Nc2ccccc2/C1=N\O [BIO, (2′Z,3′E)-6-Bromoindirubin-3′-oxime]
Expression of DE proteins FOXA2 and SOX17 by immunofluorescence (hESC line H1 [3]): produce FOXA2/SOX17 positive cells

Induction of CYP1A2 activity in smHLCs (CYP1A2): significant induction
Compound: COc1ccc2[nH]c([S+]([O-])Cc3ncc(C)c(OC)c3C)nc2c1 (stereo not drawn) [Omeprazole]

Compound: CCCCCC(=O)N[C@@H](Cc1ccc(O)cc1)C(=O)N[C@H](C(=O)NCCCCCC(N)=O)[C@@H](C)CC [Dihexa, N-hexanoic-Tyr, Ile-(6) aminohexanoic amide] (Hexanoyl-Tyr-Ile-[Ahx]-NH2)
Optimal concentration for hepatic maturation (hepatic progenitors): 100 nM

Compound: Wnt3a
Expression of DE proteins FOXA2 and SOX17 by immunofluorescence (hESC line H1 [3]): sufficient to produce populations of cells that expressed the DE markers FOXA2 and SOX17
